Six compounds from ChEMBL document CHEMBL1140427, “Semi-rational design of (north)-methanocarba nucleosides as dual acting A(1) and A(3) adenosine receptor agonists: novel prototypes for cardioprotection” (J Med Chem, 2005) can be followed below.

For experiment [1], the target named is T1, Adenosine receptor A3 (Homo sapiens) (UniProt P0DMS8).
T1 sequence (whole entry): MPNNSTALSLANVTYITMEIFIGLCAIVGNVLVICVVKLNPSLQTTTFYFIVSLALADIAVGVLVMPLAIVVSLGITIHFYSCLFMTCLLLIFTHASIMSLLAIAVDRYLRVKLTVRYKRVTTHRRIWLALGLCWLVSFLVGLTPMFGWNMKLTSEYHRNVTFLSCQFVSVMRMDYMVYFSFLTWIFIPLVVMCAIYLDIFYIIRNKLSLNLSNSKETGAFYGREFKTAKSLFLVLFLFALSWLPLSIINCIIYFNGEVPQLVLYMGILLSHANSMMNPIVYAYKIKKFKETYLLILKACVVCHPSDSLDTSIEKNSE
Put plainly: Maximal agonist effect at human adenosine A3 receptor in CHO cells at 10 uM by the inhibition of forskolin-stimulated cAMP production. In kind it is functional, cell-based. Details: scale not given: the % may be the effect or the level left. Background: cAMP levels reflect the balance of adenylyl cyclase and phosphodiesterase activity.

For experiment [2], the target named is T2, Adenosine receptor A3 (Rattus norvegicus, UniProt P28647).
T2 sequence (P28647 whole entry): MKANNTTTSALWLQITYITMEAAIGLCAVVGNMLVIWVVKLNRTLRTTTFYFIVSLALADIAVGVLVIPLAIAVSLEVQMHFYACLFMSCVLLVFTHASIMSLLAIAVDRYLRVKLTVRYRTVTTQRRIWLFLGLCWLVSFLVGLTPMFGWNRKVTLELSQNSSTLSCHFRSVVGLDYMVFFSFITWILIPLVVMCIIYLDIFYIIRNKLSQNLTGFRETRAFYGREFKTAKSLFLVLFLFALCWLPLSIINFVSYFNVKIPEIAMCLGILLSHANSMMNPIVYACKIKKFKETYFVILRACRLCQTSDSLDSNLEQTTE
The experiment can be described thus: Binding affinity to rat adenosine A3 receptor in CHO cells. In kind it is cell-based.

The target of experiment [3] is T3, Adenosine receptor A3 (Homo sapiens, UniProt P0DMS8).
T3 sequence (P0DMS8 whole entry): T1 sequence (whole entry)
The experiment can be described thus: Binding affinity to human adenosine A3 receptor in CHO cells.

For experiment [4], the target named is T4, Adenosine receptor A2b (Homo sapiens, UniProt P29275).
T4 sequence (P29275 whole entry): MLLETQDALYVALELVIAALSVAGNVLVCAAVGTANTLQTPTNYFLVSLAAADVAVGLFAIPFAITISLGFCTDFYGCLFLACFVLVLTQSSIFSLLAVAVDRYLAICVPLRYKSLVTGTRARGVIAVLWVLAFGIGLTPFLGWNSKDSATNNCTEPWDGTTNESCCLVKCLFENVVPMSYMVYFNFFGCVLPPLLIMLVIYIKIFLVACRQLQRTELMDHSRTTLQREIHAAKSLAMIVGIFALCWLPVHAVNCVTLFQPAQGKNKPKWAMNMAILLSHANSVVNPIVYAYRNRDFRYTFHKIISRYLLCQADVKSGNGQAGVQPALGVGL
The experiment can be described thus: Agonistic effect at human adenosine A2B receptor in CHO cells. In kind it is functional, cell-based.

In experiment [5] the target is Adenosine receptor A2a (Homo sapiens, UniProt P29274). The experiment can be described thus: Displacement of [3H]R-PIA or [3H]CGS 21680 from human adenosine A2A receptor in CHO cells. It is filed as cell-based.
Experiment [6] concerns the target T5, Adenosine receptor A1 (Homo sapiens, UniProt P30542).
T5 sequence (P30542 whole entry): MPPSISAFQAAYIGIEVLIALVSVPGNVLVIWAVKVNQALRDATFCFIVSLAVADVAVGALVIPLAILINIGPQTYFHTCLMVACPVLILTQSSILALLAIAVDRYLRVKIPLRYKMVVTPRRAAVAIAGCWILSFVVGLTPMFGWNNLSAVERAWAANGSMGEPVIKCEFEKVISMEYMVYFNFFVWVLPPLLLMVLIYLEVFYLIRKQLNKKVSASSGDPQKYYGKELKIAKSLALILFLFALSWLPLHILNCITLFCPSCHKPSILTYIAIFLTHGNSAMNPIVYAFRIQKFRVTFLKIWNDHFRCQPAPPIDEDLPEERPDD
Put plainly: Displacement of [3H]R-PIA or [3H]CGS 21680 from human adenosine A1 receptor in CHO cells. In kind it is cell-based. Background: In a radioligand displacement assay an active substance lowers the binding of a labelled ligand.

Experiment [7] concerns the target T6, Adenosine receptor A1 (Rattus norvegicus, UniProt P25099).
T6 sequence (P25099 whole entry): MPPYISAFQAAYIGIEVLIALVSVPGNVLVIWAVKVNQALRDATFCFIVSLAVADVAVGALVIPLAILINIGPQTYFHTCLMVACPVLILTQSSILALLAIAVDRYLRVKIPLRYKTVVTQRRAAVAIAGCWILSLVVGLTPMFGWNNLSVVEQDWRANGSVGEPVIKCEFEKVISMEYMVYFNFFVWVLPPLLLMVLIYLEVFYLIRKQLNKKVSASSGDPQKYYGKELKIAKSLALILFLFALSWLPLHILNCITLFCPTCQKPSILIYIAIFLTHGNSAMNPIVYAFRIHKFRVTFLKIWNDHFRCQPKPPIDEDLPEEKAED
The experiment can be described thus: Binding affinity to rat adenosine A1 receptor in CHO cells.

The target of experiment [8] is T5, Adenosine receptor A1. The experiment can be described thus: Agonistic effect at human adenosine A1 receptor in CHO cells. In kind it is functional, cell-based.
The target of experiment [9] is T3, Adenosine receptor A3. Put plainly: Agonistic effect at human adenosine A3 receptor in CHO cells. In kind it is functional, cell-based.

The term Ki denotes a dissociation constant, usually derived from enzyme kinetics or from competition with a known ligand. What is called EC50 is the concentration giving half of the maximal effect.

Structures are written as SMILES.

Adenosine receptor A2a, sequence (P29274 whole entry): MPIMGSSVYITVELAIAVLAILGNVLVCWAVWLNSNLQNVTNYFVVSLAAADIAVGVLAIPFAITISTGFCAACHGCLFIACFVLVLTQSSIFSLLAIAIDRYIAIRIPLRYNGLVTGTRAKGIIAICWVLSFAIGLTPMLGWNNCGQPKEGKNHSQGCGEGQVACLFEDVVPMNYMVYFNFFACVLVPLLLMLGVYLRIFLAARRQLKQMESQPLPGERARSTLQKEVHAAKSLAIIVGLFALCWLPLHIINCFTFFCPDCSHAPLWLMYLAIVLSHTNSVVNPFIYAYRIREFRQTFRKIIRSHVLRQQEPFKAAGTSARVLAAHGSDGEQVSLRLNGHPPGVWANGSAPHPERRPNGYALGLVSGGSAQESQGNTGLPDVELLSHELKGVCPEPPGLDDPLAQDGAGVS

The compound `OC[C@H]1O[C@@H](n2cnc3c(NC4C5CCC4CC5)ncnc32)[C@H](O)[C@@H]1O` (stereo partly specified) showed an Activity in [1] of 112%. Also, the figures for the inhibition constant (Ki) in experiment [2] and in experiment [3] were 229 nM and 112 nM, respectively.

In [1], `OC[C@H]1O[C@@H](n2cnc3c(NC4CCCC4)nc(Cl)nc32)[C@H](O)[C@@H]1O` showed an Activity of 0%.

In turn, `CNC(=O)C12C[C@@H]1[C@@H](n1cnc3c(NC4CCCC4)ncnc31)[C@H](O)[C@@H]2O` (single isomer, unassigned) gave an Activity in experiment [1] of 93%. Also, the inhibitory constant (Ki) in experiment [2] worked out at 10.2 nM; in experiment [3], 13.1 nM; in experiment [5] it was 6420 nM. For the same compound, the concentration for a half-maximal effect (EC50) in experiment [4] is more than 10000 nM.

For `CNC(=O)C12C[C@@H]1[C@@H](n1cnc3c(NC4C5CCC4CC5)nc(Cl)nc31)[C@H](O)[C@@H]2O` (single isomer, unassigned), the Activity in experiment [1] is 92%. The inhibition constant (Ki) in experiment [6] was 190 nM; in experiment [2] it was 9.6 nM; in experiment [3], 14.6 nM; in experiment [5], more than 10000 nM. In [4], this compound yielded an EC50 of more than 10000 nM.

`CNC(=O)C12C[C@@H]1[C@@H](n1cnc3c(NC4CCCC4)nc(Cl)nc31)[C@H](O)[C@@H]2O` (single isomer, unassigned) had an Activity in experiment [1] of 101%. The inhibition constant (Ki) in experiment [6] is 18.3 nM; in experiment [3], 3.7 nM; in [7], 17.4 nM; in experiment [5] it was 3250 nM. Moreover, the EC50 in experiment [8] was 8.2 nM; in experiment [4], more than 10000 nM; in [9] it was 2.8 nM.

In experiment [1], `OC[C@H]1O[C@@H](n2cnc3c(NC4CCCC4)ncnc32)[C@H](O)[C@@H]1O` [N6-CYCLOPENTYLADENOSINE] had an Activity of 72%. Further, the Ki stood at 240 nM in experiment [3] and 462 nM in experiment [5].
